Results reported in PubChem BioAssay (NCI).
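Following 48 hours of exposure in 96-well plates, responses at five concentrations were used to interpolate endpoints linearly. At the TGI there is no net growth.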

Legend:
Test in all cases: inhibition of tumour cell growth, NCI panel, 48 h
[1] = tested on: NCI-H460 lung
[2] = tested on: OVCAR-8 ovarian
[3] = tested on: MALME-3M melanoma
[4] = tested on: RXF 393 renal
[5] = tested on: NCI/ADR-RES ovarian
[6] = tested on: SW-620 colon
[7] = tested on: SK-MEL-2 melanoma
[8] = tested on: A549 NSCLC
[9] = tested on: UACC-62 melanoma
[10] = tested on: EKVX NSCLC
[11] = tested on: NCI-H522 lung
[12] = tested on: HCC-2998 colon
[13] = tested on: A498 renal
[14] = tested on: TK-10 renal
[15] = tested on: SNB-19 CNS
[16] = tested on: K-562 leukemia
[17] = tested on: M14 melanoma
[18] = tested on: BT-549 breast

## c1ccc(N=c2sc3ccccc3sc2=Nc2ccccc2)cc1
[1]
  TGI: 3.79 µM
[2]
  TGI: 4.08 µM
[3]
  TGI: 3.57 µM
[4]
  TGI: 3.49 µM
[5]
  TGI: 7.03 µM
[6]
  TGI: 3.27 µM
[7]
  TGI: 3.45 µM
[8]
  TGI: 9.1 µM
[9]
  TGI: 2.66 µM
[10]
  TGI: 7.26 µM
[11]
  TGI: 2.95 µM
[12]
  TGI: 3.24 µM
[13]
  TGI: 5.65 µM
[14]
  TGI: 12.9 µM
[15]
  TGI: 16.7 µM
[16]
  TGI: > 100 µM

## CCOC(=O)CCC(C(=O)OCC)n1nnc2ccc(Nc3c(C)[n+]([O-])c4cc(Cl)ccc4[n+]3[O-])cc21 (stereo not given)
[17]
  TGI: 40.2 µM
[1]
  TGI: > 100 µM
[2]
  TGI: 55.5 µM
[3]
  TGI: 35.2 µM
[4]
  TGI: 60.8 µM
[5]
  TGI: > 100 µM
[7]
  TGI: 57 µM
[8]
  TGI: > 100 µM
[9]
  TGI: 35.1 µM
[18]
  TGI: 78.1 µM
[10]
  TGI: > 100 µM
[11]
  TGI: 47 µM
[12]
  TGI: 49.7 µM
[14]
  TGI: > 100 µM
[15]
  TGI: > 100 µM
[16]
  TGI: 57.7 µM

## CC(C)(C)CC(C)(C)N=C(N)NO
[17]
  TGI: > 100 µM
[1]
  TGI: > 100 µM
[2]
  TGI: > 100 µM
[3]
  TGI: > 100 µM
[4]
  TGI: > 100 µM
[5]
  TGI: > 100 µM
[6]
  TGI: > 100 µM
[7]
  TGI: > 100 µM
[8]
  TGI: > 100 µM
[9]
  TGI: > 100 µM
[10]
  TGI: > 100 µM
[11]
  TGI: > 100 µM
[12]
  TGI: > 100 µM
[13]
  TGI: 97.6 µM
[14]
  TGI: > 100 µM
[15]
  TGI: > 100 µM
[16]
  TGI: > 100 µM

## CC(C)Oc1ccc(CNC2=NCCO2)c2ccccc12
[17]
  TGI: 24.4 µM
[1]
  TGI: 26.7 µM
[2]
  TGI: 31.9 µM
[3]
  TGI: 28 µM
[4]
  TGI: 28.3 µM
[5]
  TGI: 31.9 µM
[6]
  TGI: 31.7 µM
[8]
  TGI: 30.8 µM
[9]
  TGI: 30.6 µM
[10]
  TGI: 29.2 µM
[12]
  TGI: 25.3 µM
[13]
  TGI: 23 µM
[14]
  TGI: 30.2 µM
[15]
  TGI: 23 µM
[16]
  TGI: 15.8 µM

## CN1CCCC1=NC#N
[17]
  TGI: > 100 µM
[1]
  TGI: > 100 µM
[2]
  TGI: > 100 µM
[3]
  TGI: > 100 µM
[4]
  TGI: > 100 µM
[5]
  TGI: > 100 µM
[6]
  TGI: > 100 µM
[7]
  TGI: > 100 µM
[8]
  TGI: > 100 µM
[9]
  TGI: > 100 µM
[10]
  TGI: > 100 µM
[11]
  TGI: > 100 µM
[12]
  TGI: > 100 µM
[13]
  TGI: > 100 µM
[14]
  TGI: > 100 µM
[15]
  TGI: > 100 µM
[16]
  TGI: > 100 µM

## O=C1/C(=C/c2ccccc2)N=C(c2ccccc2)N1C1Nc2cc3c(cc2S1)NC(N1C(=O)/C(=C/c2ccccc2)N=C1c1ccccc1)S3 (stereo not given)
[17]
  TGI: > 100 µM
[1]
  TGI: > 100 µM
[2]
  TGI: > 100 µM
[4]
  TGI: 54.3 µM
[5]
  TGI: > 100 µM
[6]
  TGI: 78.5 µM
[7]
  TGI: 77.5 µM
[10]
  TGI: > 100 µM
[11]
  TGI: 0.0623 µM
[12]
  TGI: 4.76 µM
[13]
  TGI: 68 µM
[14]
  TGI: > 100 µM
[16]
  TGI: > 100 µM

## COc1c(C)c(C/C=C(\C)CCCCO)c(OC)c(OC)c1OC
[17]
  TGI: > 100 µM
[1]
  TGI: 35.1 µM
[2]
  TGI: > 100 µM
[4]
  TGI: > 100 µM
[5]
  TGI: > 100 µM
[6]
  TGI: > 100 µM
[7]
  TGI: > 100 µM
[8]
  TGI: 69.6 µM
[9]
  TGI: > 100 µM
[18]
  TGI: > 100 µM
[10]
  TGI: > 100 µM
[11]
  TGI: > 100 µM
[14]
  TGI: > 100 µM
[15]
  TGI: > 100 µM
[16]
  TGI: > 100 µM

## C[C@H]1CCCCC[C@@H]2CC(=O)CC2C(=O)CCC(=O)O1 (stereo not given in full)
[17]
  TGI: > 100 µM
[1]
  TGI: > 100 µM
[2]
  TGI: > 100 µM
[3]
  TGI: > 100 µM
[4]
  TGI: > 100 µM
[5]
  TGI: > 100 µM
[6]
  TGI: > 100 µM
[8]
  TGI: > 100 µM
[9]
  TGI: > 100 µM
[18]
  TGI: > 100 µM
[10]
  TGI: > 100 µM
[11]
  TGI: > 100 µM
[12]
  TGI: > 100 µM
[14]
  TGI: > 100 µM
[15]
  TGI: > 100 µM
[16]
  TGI: > 100 µM
